In PubChem BioAssay (NCI):
Where “and” joins values, the source holds several entries; their conditions need not be identical. Identical values can stand only once.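 Dose response: 5 concentrations. Exposure: 48 h. Format: 96-well plates. Endpoint: linear interpolation; highest concentration if not reached. GI50 is the concentration that inhibits growth by half. TGI denotes the concentration required for complete inhibition of growth.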

What was measured:
Test in all cases: growth of human tumour cells (NCI), 48 h
M14 melanoma = test system: M14 melanoma
ACHN renal = test system: ACHN renal
HOP-62 NSCLC = test system: HOP-62 NSCLC
K-562 leukemia = test system: K-562 leukemia
MCF7 breast = test system: MCF7 breast
SNB-19 CNS = test system: SNB-19 CNS
CCRF-CEM leukemia = test system: CCRF-CEM leukemia
NCI/ADR-RES ovarian = test system: NCI/ADR-RES ovarian
EKVX NSCLC = test system: EKVX NSCLC
SF-268 CNS = test system: SF-268 CNS

Structure (SMILES)	GI50 (M14 melanoma) [µM]	TGI (M14 melanoma) [µM]	GI50 (ACHN renal)	TGI (ACHN renal) [µM]	GI50 (HOP-62 NSCLC)	TGI (HOP-62 NSCLC)	GI50 (K-562 leukemia)	TGI (K-562 leukemia) [µM]	GI50 (MCF7 breast)	TGI (MCF7 breast) [µM]	GI50 (SNB-19 CNS)	TGI (SNB-19 CNS) [µM]	GI50 (CCRF-CEM leukemia)	TGI (CCRF-CEM leukemia)	GI50 (NCI/ADR-RES ovarian)	TGI (NCI/ADR-RES ovarian)	GI50 (EKVX NSCLC)	TGI (EKVX NSCLC) [µM]	GI50 (SF-268 CNS)	TGI (SF-268 CNS) [µM]
CC[C@H](C)[C@H](NC(=O)[C@H]1CCCCN1C)C(=O)N(C)[C@H](C[C@@H](OC(C)=O)c1cccc(C(=O)N[C@@H](Cc2ccccc2)C[C@H](C)C(=O)O)n1)C(C)C	< 0.0025	< 0.0025	0.00787 µM and 0.0025 µM	> 25	0.00275 µM and 0.0025 µM	> 25 µM	0.000539 µM and 0.0025 µM	> 25	0.000341 µM and 0.0025 µM	> 25	0.00138 µM and 0.0025 µM	> 25	0.000818 µM and 0.0025 µM	> 25 µM	0.0584 µM and 0.00946 µM	> 25 µM	0.00493 µM and 0.0025 µM	> 25	0.00435 µM and 0.0025 µM	> 25
O=C1NC2(CCCCC2)C(=O)N1CCN(CCCl)CCCl		> 25		25	> 25 µM	> 25 µM and 149 µM	> 25 µM	> 250	> 25 µM	> 250	> 25 µM	> 250	12.2 µM	25 µM and 212 µM	> 25 µM	> 25 µM and 184 µM	> 25 µM	> 250	> 25 µM and 112 µM	> 250
CCN(CC)CCN1c2nc3ccccc3cc2Sc2cc3ccccc3nc21	1.64	3.38	2.58 µM	9.29	1.42 µM	3.06 µM	3.04 µM	> 100	0.75 µM	2.1	3.03 µM	11.9	1.84 µM	4.73 µM	2.5 µM	7.83 µM	4.49 µM	17.9	3.34 µM	13
COc1ccccc1[As]=[As]c1ccccc1OC (configuration not stated)	0.0407	0.147	0.0613 µM	0.186	0.05 µM	0.164 µM	0.0324 µM		0.021 µM	0.0604	0.065 µM	0.193	0.026 µM	0.113 µM	0.0763 µM	0.306 µM	0.12 µM	0.271	0.036 µM	0.14
O=C1Nc2ccccc2/C1=C\c1nc(-c2ccccc2F)n2ccccc12	5.65	17.9	3.3 µM	10.9	2.37 µM	5.93 µM	6.35 µM	19.7	2.1 µM	12.2	4.7 µM	16.7	91.1 µM	> 100 µM	3.36 µM	13.3 µM	10.6 µM	28.3	4.65 µM	18.7
CC(=O)/C(Br)=C/c1ccc(Br)o1	4.71	13.7	9.5 µM	22.2	24.6 µM	59.2 µM	2.99 µM	> 36.5	3.67 µM	14.4	26 µM	> 59.6	2.04 µM	5.85 µM	7.88 µM	38.3 µM	14.6 µM	28.1	7.58 µM	23.6
O=C(NCCOCCOCCOCCNC(=O)c1cc2c(o1)C(=O)c1ccccc1C2=O)NC12CC3CC(CC(C3)C1)C2	0.462	1.8	1.75 µM	4.21	2.03 µM	3.53 µM	1.98 µM	8.91	1.16 µM	3.22	2.06 µM	8.03	3.23 µM	> 100 µM	2.96 µM	10.1 µM	2.57 µM	7.07	2.29 µM	6.22
Cc1c2ccncc2c(C)c2c1sc1ccccc12		26.4		15.7		21.9 µM		41.1		18.1		26.7		30.4 µM		25 µM		25.2		64.3
Nc1ncc(-c2ccc3ncnc(N4CCc5ccc(Cl)cc54)c3c2)cc1C(F)(F)F	4.63	26	0.569 µM	13.2	1.74 µM	13.2 µM	3.98 µM	> 100	0.375 µM	14.9	2.63 µM	23.7	3.87 µM	> 100 µM	2.26 µM	91.1 µM	0.507 µM	18.7	1.13 µM	24.7
Cc1ccc(-c2nc(-c3nccc4ccccc34)oc2-c2ccccc2)cc1		> 100		> 100		> 100 µM		> 100		> 100		> 100		> 100 µM		> 100 µM		64.5		> 100
